According to US12606561B2, “Substituted pyrazolo[1,5-a][1,3,5]triazines as CDK inhibitors” (QURIENT CO., LTD., priority 2018, dated 2026):
pIC50: −log10 of the molar value.

Legend:
[1] = target: T1, CDK1/Cyclin B (Homo sapiens, UniProt P06493); assay: Enzymatic assay for CDK1 (LANCE Ultra kinase assay, FRET based); assay type: biochemical; conditions: ATP at Km; read-out: CDK1 enzymatic activity IC50
T1 construct: purchased Invitrogen PR4768C
Experimental: (§1) Enzymatic Binding Assay Protocol for CDK1, CDK2, CDK5 and CDK7
(§2) Inhibition activity of the respective compound on CDK kinase under Km value of ATP was tested in FRET based The LANCE® Ultra kinase assay (Perkin Elmer), which uses a ULight™-labeled peptide substrate and an appropriate Europium-labeled anti-phospho-antibody. […] After 1 min centrifugation at 1000 rpm, purified CDKs/Cyclin complex were added with the following concentrations respectively. […] Data were analyzed using XL Fit software.

[2] = target: T2, CDK2/Cyclin A (Homo sapiens, UniProt P24941); assay: Enzymatic assay for CDK2 (LANCE Ultra kinase assay, FRET based); assay type: biochemical; conditions: ATP at Km
T2 construct: purchased Invitrogen PV6290
Experimental: as §1
(§3) Inhibition activity of the respective compound on CDK kinase under Km value of ATP was tested in FRET based The LANCE® Ultra kinase assay (Perkin Elmer), which uses a ULight™-labeled peptide substrate and an appropriate Europium-labeled anti-phospho-antibody. Test compounds were made with DMSO solutions, and then 4-fold serial dilutions for 8 doses were prepared using automated liquid handler (POD™ 810, Labcyte) and 80 nL/well of diluted compound solutions were added into the 384-well plates (Greiner, Cat #784075). And then 68 nM of ULight-MBP peptide (Perkin Elmer, Cat #TRF0109-M) and 5 ul/well of ATP (Sigma, Cat #A7699) were added to the plate. After 1 min centrifugation at 1000 rpm, purified CDKs/Cyclin complex were added with the following concentrations respectively. 24 uM for CDK1/Cyclin B (Invitrogen, Cat #PR4768C), 22 uM for CDK2/Cyclin A (Invitrogen, Cat #PV6290), 10 uM for CDK5/p25 (Invitrogen, Cat #PR8543B) and […] for CDK7/Cyclin H/MNAT1 (Invitrogen, Cat #PR6749B) were added to each corresponding plate for CDK1, CDK2, CDK5 and CDK7. Incubate at 23° C. for 60 min and then Eu-labeled anti-phospho-Myelin Basic Protein (PE, Cat #TRF0201-M) and EDTA (Invitrogen, Cat #15575038) mixture in Lance Detection Buffer (Perkin Elmer, Cat #CR97100) was added in each well. After additional incubation at 23° C. for 60 min, test articles were measured the fluorescence using Envision leader (Perkin Elmer, USA) [Laser as excitation light; […] as the first and the second emission filter]. Data were analyzed using XL Fit software.

[3] = target: T3, CDK5/p25 (Homo sapiens, UniProt Q00535); assay: Enzymatic assay for CDK5 (LANCE Ultra kinase assay, FRET based); assay type: biochemical; conditions: ATP at Km
T3 construct: purchased Invitrogen PR8543B
T3 sequence (Q00535 whole entry): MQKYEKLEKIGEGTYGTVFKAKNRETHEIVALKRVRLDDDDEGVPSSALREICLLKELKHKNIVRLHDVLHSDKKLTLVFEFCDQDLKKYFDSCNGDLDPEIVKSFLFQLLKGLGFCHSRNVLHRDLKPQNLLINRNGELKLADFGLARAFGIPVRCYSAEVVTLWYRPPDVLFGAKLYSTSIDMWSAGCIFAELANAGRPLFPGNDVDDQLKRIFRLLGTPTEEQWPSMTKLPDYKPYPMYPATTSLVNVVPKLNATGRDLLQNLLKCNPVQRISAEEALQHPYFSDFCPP
T3 sequence (Q15078 99-307 partner limits assumed): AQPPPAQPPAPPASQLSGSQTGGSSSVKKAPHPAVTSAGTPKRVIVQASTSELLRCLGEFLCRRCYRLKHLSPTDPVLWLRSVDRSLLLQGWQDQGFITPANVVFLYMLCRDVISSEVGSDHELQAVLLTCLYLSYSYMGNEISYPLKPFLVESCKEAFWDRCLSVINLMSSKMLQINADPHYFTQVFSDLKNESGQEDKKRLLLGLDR
Experimental: as §1, §3

[4] = target: T4, CDK7/Cyclin H/MNAT1 (Homo sapiens, UniProt P50613); assay: Enzymatic assay for CDK7 (LANCE Ultra kinase assay, FRET based); assay type: biochemical; conditions: for pIC50: ATP at Km
T4 construct: purchased Invitrogen PR6749B
T4 sequence (P50613 whole entry): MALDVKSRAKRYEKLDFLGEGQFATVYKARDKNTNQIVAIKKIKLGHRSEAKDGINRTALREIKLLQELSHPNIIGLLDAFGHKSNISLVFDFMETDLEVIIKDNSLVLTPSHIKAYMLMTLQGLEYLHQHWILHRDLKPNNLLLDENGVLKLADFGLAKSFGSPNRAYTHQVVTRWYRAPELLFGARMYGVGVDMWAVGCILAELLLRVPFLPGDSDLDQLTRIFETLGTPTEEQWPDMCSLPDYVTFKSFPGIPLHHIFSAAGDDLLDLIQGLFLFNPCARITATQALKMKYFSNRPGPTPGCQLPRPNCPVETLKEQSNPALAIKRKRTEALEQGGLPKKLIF
T4 sequence (P51946 whole entry partner): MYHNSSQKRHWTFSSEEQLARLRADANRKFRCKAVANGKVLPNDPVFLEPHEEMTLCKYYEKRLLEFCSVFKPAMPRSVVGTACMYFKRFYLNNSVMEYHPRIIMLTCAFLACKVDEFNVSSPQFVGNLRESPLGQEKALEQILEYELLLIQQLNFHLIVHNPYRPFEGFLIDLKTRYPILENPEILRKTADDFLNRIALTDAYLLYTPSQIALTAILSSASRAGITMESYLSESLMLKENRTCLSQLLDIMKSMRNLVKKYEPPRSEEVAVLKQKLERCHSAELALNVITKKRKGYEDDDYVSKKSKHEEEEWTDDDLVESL
T4 sequence (P51948 whole entry partner): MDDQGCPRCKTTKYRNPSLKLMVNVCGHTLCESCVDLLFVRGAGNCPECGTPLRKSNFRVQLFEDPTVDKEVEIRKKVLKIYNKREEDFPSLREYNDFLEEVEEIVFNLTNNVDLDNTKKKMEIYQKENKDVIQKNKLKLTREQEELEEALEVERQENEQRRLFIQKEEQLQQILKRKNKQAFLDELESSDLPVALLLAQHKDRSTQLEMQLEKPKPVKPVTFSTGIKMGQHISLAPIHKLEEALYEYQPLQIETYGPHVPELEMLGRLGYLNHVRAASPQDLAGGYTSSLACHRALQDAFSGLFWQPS
Experimental: as §1, §2

[5] = test system: A2780; assay: A2780 viability assay (CellTiter-Glo, 72 hours); assay type: cell-based; conditions: Homo sapiens; A2780 cells
Experimental: Human […] cell line, MV4-11_(ATCC, Cat #CRL-9591), NSCLC (Non-small cell lung cancer) cell line H460 (ATCC, Cat #HTB-177), A2780 (ECACC, Cat #93112519) and OVCAR-3(ATCC, Cat #HTB-161) were obtained from ATCC. Cells were grown in RPMI-1640 media (Invitrogen, Cat #22400-089) supplemented with 10% FBS (Invitrogen, Cat #10099141) and 1% penicillin/streptomycin (Invitrogen, Cat #15070063) and cultured at 37° C., 5% CO2 in a humidified chamber. All cell lines were routinely tested for mycoplasma.
To effect of the CDK7 inhibitor to inhibit the growth of target cancer cells, viability assay were conducted a 72 hour time period. Briefly, the candidate cell line was plated in 96 well plate at the following density of cells respectively. 1×10^4 cells/well for MV4-11, 5×10^3 for H460 and OVCAR-3, and 1×10^3 for A2780. After 24 hours, the cells were treated with various concentrations of the compound (ranging from 0.0015 uM to 10 uM). DMSO solvent without compound served as a control and final DMSO concentration lest than 0.1%. After 72 hours of incubation at 37° C., 5% CO2 incubator, cells were analyzed for the viability using the CellTiter-Glo Luminescent Cell Viability Assay (Promega, Cat #G7570). All viability assays were performed in duplicate and Luminescence was read using an Envision (Perkin Elmer, USA). Data was analyzed using XLfit software.

T1 sequence (P06493 whole entry): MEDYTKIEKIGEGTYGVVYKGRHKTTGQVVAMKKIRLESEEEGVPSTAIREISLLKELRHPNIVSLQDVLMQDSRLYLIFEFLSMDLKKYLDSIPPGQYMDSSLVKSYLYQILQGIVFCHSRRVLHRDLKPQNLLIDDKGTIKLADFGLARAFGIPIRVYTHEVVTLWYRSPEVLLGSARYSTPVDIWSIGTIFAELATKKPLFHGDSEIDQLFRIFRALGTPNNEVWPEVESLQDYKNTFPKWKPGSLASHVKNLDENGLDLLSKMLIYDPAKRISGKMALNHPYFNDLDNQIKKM
T1 sequence (P14635 whole entry partner): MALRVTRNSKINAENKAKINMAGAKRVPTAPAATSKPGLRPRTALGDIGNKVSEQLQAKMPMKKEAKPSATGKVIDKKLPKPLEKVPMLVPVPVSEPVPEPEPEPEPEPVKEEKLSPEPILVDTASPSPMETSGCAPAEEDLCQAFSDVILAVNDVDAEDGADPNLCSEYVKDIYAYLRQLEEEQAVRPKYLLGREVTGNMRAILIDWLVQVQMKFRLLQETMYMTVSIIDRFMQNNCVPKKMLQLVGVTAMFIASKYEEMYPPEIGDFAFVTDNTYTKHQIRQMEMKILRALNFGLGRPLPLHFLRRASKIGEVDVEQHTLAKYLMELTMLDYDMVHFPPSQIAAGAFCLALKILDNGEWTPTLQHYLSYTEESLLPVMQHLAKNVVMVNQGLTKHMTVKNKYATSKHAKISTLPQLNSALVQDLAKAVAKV

SMILES | pIC50 [1] | pIC50 [2] | pIC50 [3] | pIC50 [4] | CDK1/CDK7: Selectivity of CDK7 inhibition over CDK1 inhibition [4] | CDK2/CDK7: Selectivity of CDK7 inhibition over CDK2 inhibition [4] | CDK5/CDK7: Selectivity of CDK7 inhibition over CDK5 inhibition [4] | pIC50 [5]
CC(C)c1cnn2c(NCc3ccccc3-c3nccc4cc(NC(=O)/C=C/CN(C)C)ccc34)cc(C(F)(F)F)nc12 [Compound 204] | < 6.00 | < 6.00 | < 6.00 | > 7.00 | A (A indicates [fold] > 500) | A (A indicates [fold] > 500) | A (A indicates [fold] > 500) | > 6.00
C=C(Cl)C(=O)Nc1ccc2c(-c3ccccc3CNc3nc(NC[C@H]4CCNC[C@@H]4O)nc4c(C(C)C)cnn34)nccc2c1 [Compound 206] | < 6.00 | < 6.00 | < 6.00 | > 7.00 | A (A indicates [fold] > 500) | A (A indicates [fold] > 500) | A (A indicates [fold] > 500) | > 6.00
C=C(F)C(=O)N1CCc2c(cccc2-c2ccccc2CNc2nc(OC3CCC(C)(C)NC3)nc3c(C(C)C)cnn23)C1 (stereo not drawn) [Compound 191] | < 6.00 | < 6.00 | < 6.00 | > 7.00 | A (A indicates [fold] > 500) | A (A indicates [fold] > 500) | A (A indicates [fold] > 500) | > 6.00
C=CC(=O)Nc1ccc2c(-c3ccccc3CNc3nc(N4CCNC(C(F)(F)F)C4)nc4c(C(C)C)cnn34)nccc2c1 (stereo not drawn) [Compound 211] | < 6.00 | < 6.00 | < 6.00 | > 7.00 | A (A indicates [fold] > 500) | A (A indicates [fold] > 500) | A (A indicates [fold] > 500) | > 6.00
C=C(Cl)C(=O)Nc1ccc2c(-c3ccccc3CNc3nc(N[C@H]4CC[C@H](OC)CC4)nc4c(C(C)C)cnn34)nccc2c1 [Compound 209] | < 6.00 | < 6.00 | < 6.00 | > 7.00 | A (A indicates [fold] > 500) | A (A indicates [fold] > 500) | A (A indicates [fold] > 500) | > 6.00
C=CC(=O)Nc1ccc2c(-c3ccccc3CNc3cc(NC4CCC(C)(C)NC4)nc4c(C(C)C)cnn34)nccc2c1 (stereo not drawn) [Compound 184] | < 6.00 | < 6.00 | < 6.00 | > 7.00 | A (A indicates [fold] > 500) | A (A indicates [fold] > 500) | A (A indicates [fold] > 500) | > 6.00
C=C(C)C(=O)Nc1ccc2c(-c3ccccc3CNc3nc(OC4CCC(C)(C)NC4)nc4c(C(C)C)cnn34)nccc2c1 (stereo not drawn) [Compound 190] | < 6.00 | < 6.00 | < 6.00 | > 7.00 | A (A indicates [fold] > 500) | A (A indicates [fold] > 500) | A (A indicates [fold] > 500) | > 6.00
C=C(F)C(=O)N1CCc2c(ccnc2-c2ccccc2CNc2nc(OC3CCC(C)(C)NC3)nc3c(C(C)C)cnn23)C1 (stereo not drawn) [Compound 199] | < 6.00 | < 6.00 | < 6.00 | > 7.00 | A (A indicates [fold] > 500) | A (A indicates [fold] > 500) | A (A indicates [fold] > 500) | > 6.00
C=CC(=O)Nc1ccc2c(-c3ccccc3CNc3nc(NCc4cnc(C)s4)nc4c(C(C)C)cnn34)nccc2c1 [Compound 196] | < 6.00 | < 6.00 | < 6.00 | < 6.00 | C (C indicates [fold] ≤ 50) | C (C indicates [fold] ≤ 50) | C (C indicates [fold] ≤ 50) | 5.00 to 6.00
C=CC(=O)Nc1ccc2c(-c3ccccc3CNc3cc(C4CC4)nc4c(C(C)C)cnn34)nccc2c1 [Compound 197] | < 6.00 | < 6.00 | < 6.00 | > 7.00 | A (A indicates [fold] > 500) | A (A indicates [fold] > 500) | A (A indicates [fold] > 500) | > 6.00
C=CC(=O)Nc1ccc2c(-c3cccc(C(F)(F)F)c3CNc3nc(Nc4cccnc4)nc4c(C(C)C)cnn34)nccc2c1 [Compound 213] | < 6.00 | < 6.00 | < 6.00 | < 6.00 | C (C indicates [fold] ≤ 50) | C (C indicates [fold] ≤ 50) | C (C indicates [fold] ≤ 50) | 5.00 to 6.00
C=CC(=O)Nc1ccc2c(-c3ccccc3CNc3nc(Nc4cccnc4)nc4c(C(C)C)cnn34)nccc2c1 [Compound 188] | < 6.00 | < 6.00 | < 6.00 | > 7.00 | A (A indicates [fold] > 500) | A (A indicates [fold] > 500) | A (A indicates [fold] > 500) | > 6.00
